Patent US20230346705A1, “NANOPARTICLES FOR TREATING OR PREVENTING A CARDIOMYOPATHY AND ANTHRACYCLINE-CYTOTOXICITY, AND THEIR ADMINISTRATION AS AN AEROSOL” (INSTITUT NATIONAL DE LA SANTE ET DE LA RECHERCHE MEDICALE …, priority 2020, published 2023)

Columns and labels:
[1] = system: H9C2 cells; test: Autophagosomes/autolysosomes visualization (GFP-LC3, RFP-GFP-LC3) in H9C2; type: cell-based, Rat
Procedure: Autophagosomes were visualized in GFP-LC3-transduced cells. Autophagic flux was evaluated in RFP-GFP-LC3-transduced cells. Representative images were taken with an epifluorescence microscope (DM600 microscope, Leica) and quantification of yellow puncta (autophagosomes) and red puncta (autolysosomes) was performed using Image J software.

[2] = system: LC3-II and p62; test: Western blot of autophagy markers LC3-II and p62 in H9C2; type: cell-based, Rat; conditions: H9C2, Baf A1 treatment alone
Procedure: H9C2 or NRVMs extracts were prepared by lysing in RIPA buffer (50 mM Tris pH 7.2, 500 mM NaCl, 1% Triton X-100, 1 mM EDTA, 100 mM sodium fluoride, 5 mM sodium metavanadate, 10 mM sodium pyrophosphate) and equal protein amounts were subjected to sodium dodecyl sulfate-polyacrylamide gel electrophoresis (SDS-PAGE) in 10-15% gels depending upon protein molecular weight. After electrophoresis, proteins were transferred to nitrocellulose membranes and incubated with the following antibodies: anti-GAPDH, anti-LC3B, anti-cleaved caspase 3, anti-p-p53 from Cell Signaling Technology, anti-p62 from Abnova, anti-Lamp1, anti-cathepsin D from Abcam. Proteins were detected by chemiluminescence with a Bio-Rad ChemiDoc XRS camera. Relative densities were quantified using the ImageLab 5.2.1 software (Bio-Rad). All data were normalized by internal controls.

[3] = system: H9C2 cells; test: Lysosomal pH (Acridine Orange, Lysosensor) in H9C2; type: cell-based, Rat
Procedure: Acridine Orange (Sigma Aldrich), a weak base which accumulates in acidic organelles, was used to label the lysosomes. After treatments, cells were incubated with 5 μM AO for 10 min at 37° C. and washed twice with PBS. Red fluorescence (corresponding to acidic vesicles staining) was measured using a Varioskan Flash Multimode Microplate Reader with excitation/emission at 480/630 nm. Representative pictures were taken with an epifluorescence microscope (DM600 microscope, Leica).
Lysosomal acidification was measured in H9C2 and NRVMs loaded with 2 μM LysoSensor yellow/blue DND-160 (Invitrogen) for 15 min at 37° C. The LysoSensor dye is a ratiometric probe that produces yellow fluorescence in acidic environments, but changes to blue fluorescence in neutral environments. pH calibration was performed following the protocol established by Diwu et al. (Chem Biol. (1999); 6(7):411-418). Briefly, cells were incubated in MES buffer (5 mMNaCl, 115 mMKCl, 1.3 mM MgSO 4, 25 mM MES) supplemented with 10 μM nigericin and 10 μM monensin, for 10 min, with pH adjusted to a range from 3 to 7. The samples were read in a Varioskan Flash Multimode Microplate Reader with excitation at 360 nm. The ratio of emission 440/540 nm was then calculated for each sample.

[4] = system: neonatal rat ventricular myocytes (NRVMs); test: Cell death / toxicity (LDH release) in NRVMs; type: cell-based; conditions: doxorubicin 1 μM alone
Procedure: (§1) Rat H9C2 cardiomyoblasts (American Type Culture Collection, Rockville, U.S.A.) were grown in DMEM media containing 10% heat-inactivated FBS under 5% CO2 and 95% air at 37° C. H9C2 serve as an animal-free alternative sharing many physiological properties of primary cardiac cells. For neonatal rat ventricular myocytes (NRVMs), rats of 1-2 days old were euthanized and hearts were excised before the atria were removed. Primary culture of NRVMs was subsequently performed as previously described (Manzella et al. 2018; Aging Cell 17(5):e12811). NRVMs were grown in Ham-F12 medium containing 10% heat-inactivated FBS and 10% heat-inactivated HS under 5% CO2 and 95% air at 37° C. Plasmid transfections with GFP-LC3, GFP-RFP-LC3 or RFP-LAMP1 constructs (Addgene) were performed using Lipofectamine 2000 reagent (Life Technologies) in Opti-MEM™ transfection medium (Gibco). […]
For quantitative assessment of cardiomyocyte necrosis, LDH release in culture medium was measured using the LDH cytotoxicity assay kit according to the manufacturer's instructions (Biovision). Apoptosis was measured in NRVMs by caspase-3 activation using a commercial kit (Biotium) according to the manufacturer's instructions.

[5] = system: neonatal rat ventricular myocytes (NRVMs); test: Lysosomal pH (Acridine Orange, Lysosensor) in NRVMs; type: cell-based; conditions: doxorubicin 250 nM alone
Procedure: as §1, with “C.” for “C. Plasmid transfections with GFP-LC3, GFP-RFP-LC3 or RFP-LAMP1 constructs (Addgene) were performed using Lipofectamine 2000 reagent (Life Technologies) in Opti-MEM™ transfection medium (Gibco).”
Acridine Orange (Sigma Aldrich), a weak base which accumulates in acidic organelles, was used to label the lysosomes. […] Red fluorescence (corresponding to acidic vesicles staining) was measured using a Varioskan Flash Multimode Microplate Reader with excitation/emission at 480/630 nm. […]
Lysosomal acidification was measured in H9C2 and NRVMs loaded with 2 μM LysoSensor yellow/blue DND-160 (Invitrogen) for 15 min at 37° C. The LysoSensor dye is a ratiometric probe that produces yellow fluorescence in acidic environments, but changes to blue fluorescence in neutral environments. pH calibration was performed following the protocol established by Diwu et al. (Chem Biol. (1999); 6(7):411-418). […]

[6] = system: neonatal rat ventricular myocytes (NRVMs); test: Mitochondrial ROS (mitoSOX) in NRVMs; type: cell-based; conditions: doxorubicin 250 nM alone
Procedure: (§2) Cellular ROS were measured using the fluorescent probe DCFDA assay at a concentration of 5 μM (ThermoFisher Scientific). Fluorescence was quantified using a fluorimeter TECAN infinite proF200 with excitation/emission at 500/530 nm. Mitochondrial ROS were measured by mitoSOX probe (Invitrogen, Molecular Probes). Briefly, the cells were loaded with mitoSOX probe at a final concentration of 5 μM and incubated for 30 min after the indicated treatments. Cells were resuspended in HBSS before reading in Tecan plate reader.

[7] = system: H9C2 cells; test: Cellular ROS (DCFDA) in H9C2; type: cell-based, Rat; conditions: H9C2, 10 h after doxorubicin 1 μM alone
Procedure: as §2

[8] = system: H9C2 cells; test: Mitochondrial membrane potential (JC-1 probe) in H9C2; type: cell-based, Rat; conditions: H9C2, 10 h after doxorubicin 1 μM alone
Procedure: The mitochondrial membrane potential was evaluated using JC-1 probe (ThermoFisher Scientific). Before the end of treatments, cells were loaded with JC-1 probe at a concentration of 5 μg/ml for 10 min at 37° C. Then, medium was replaced by HBSS and the fluorescence was recorded at 535 nm (excitation wavelength, emission at 590 nm) to measure the formation of red aggregates and at 485 (excitation wavelength, emission at 530 nm) to measure the presence of green monomers, using a fluorimeter TECAN infinite pro F200. Representative images were taken with an epifluorescence microscope (DM600 microscope, Leica).

[9] = H9C2, Bafilomycin A1 100 nM alone

Row | Structure (SMILES) | autophagic flux, tandem RFP-GFP-LC3 reporter ([1]; H9C2, Baf A1 alone) | autophagosomes in GFP-LC3-transduced cells ([1]; H9C2, Baf A1 treatment alone) | LC3-II and p62 protein levels [2] | Acridine Orange red puncta (lysosomal acidification) [3, 9] | lysosomal pH (Lysosensor) [3, 9] | cell death at the dose used in prior experiments [4] | autolysosomes (AL), GFP-RFP-LC3 reporter ([1]; H9C2, doxorubicin 1 μM alone) | number of autophagosomes (AP), GFP-RFP-LC3 reporter ([1]; H9C2, doxorubicin 1 μM alone) | duration of A.O. red fluorescence alteration [5] | A.O. red fluorescence ([5]; 24 h) | mitochondrial ROS (mitoSOX) [6] | AO red fluorescence ([3]; H9C2, doxorubicin 1 μM alone) | lysosomal pH (lysosensor blue/yellow ratio) ([3]; H9C2, doxorubicin 1 μM alone) | oxidative stress (ROS, DCFDA) [7] | mitochondrial membrane potential (JC-1) [8]
1 | CO/C1=C\C(C)=C\[C@@H](C)[C@@H](O)[C@@H](C)C/C(C)=C/C=C/[C@H](OC)[C@@H]([C@@H](C)[C@@H](O)[C@H](C)[C@@]2(O)C[C@@H](O)[C@H](C)[C@@H](C(C)C)O2)OC1=O [Baf A1, Bafilomycin A1] | accumulation of red+green autophagosomes (AP) and to the reduction of red-only autolysosomes | accumulation of autophagosomes (AP) | increased LC3-II and p62 protein levels | loss of Acridine Orange (AO) red puncta | rise in lysosomal pH | – | – | – | – | – | – | – | – | – | –
2 | COc1cccc2c1C(=O)c1c(O)c3c(c(O)c1C2=O)C[C@@](O)(C(=O)CO)C[C@@H]3O[C@H]1C[C@H](N)[C@H](O)[C@H](C)O1 [doxorubicin] | – | – | – | – | – | rapid cell death in only 24 hours | accumulation of autolysosomes (AL) | remained unchanged | maintained until 40 h | decrease in A.O. red fluorescence | mitochondrial ROS increase | significantly decreased AO red fluorescence | increased lysosomal pH | accumulation of oxidative stress | drop in mitochondrial membrane potential
